{
  "source": "paper PMC6166404",
  "about": "(Journal of medicinal chemistry, 2018)",
  "key": {"H37Rv": {"tested_on": "H37Rv", "assay_type": "cell-based", "conditions": "addition of ATc"}, "Mtb H37Rv (ATCC 27294) [1]": {"tested_on": "Mtb H37Rv (ATCC 27294)", "conditions": "7H9/ADC/Tween medium, no guanine, 1 week; cited from earlier work"}, "Mtb H37Rv (ATCC 27294) [2]": {"tested_on": "Mtb H37Rv (ATCC 27294)", "assay_type": "cell-based", "conditions": "for effect of guanine on MIC: presence of guanine (200 μM); for antibacterial activity over two weeks: two weeks in culture"}, "HepG2 cells": {"tested_on": "HepG2 cells", "conditions": "24 h; for cytotoxicity (in words) / LD50: LDH release; for cytotoxicity (in words): up to 25 μM; for cytotoxicity, lactate dehydrogenase release: 25 μM, range stated for the three compounds together"}, "human GMPR2": {"biological_target": "T1, human GMPR2 (Homo sapiens, UniProt Q9P2T1)", "T1 sequence (Q9P2T1 1-348)": "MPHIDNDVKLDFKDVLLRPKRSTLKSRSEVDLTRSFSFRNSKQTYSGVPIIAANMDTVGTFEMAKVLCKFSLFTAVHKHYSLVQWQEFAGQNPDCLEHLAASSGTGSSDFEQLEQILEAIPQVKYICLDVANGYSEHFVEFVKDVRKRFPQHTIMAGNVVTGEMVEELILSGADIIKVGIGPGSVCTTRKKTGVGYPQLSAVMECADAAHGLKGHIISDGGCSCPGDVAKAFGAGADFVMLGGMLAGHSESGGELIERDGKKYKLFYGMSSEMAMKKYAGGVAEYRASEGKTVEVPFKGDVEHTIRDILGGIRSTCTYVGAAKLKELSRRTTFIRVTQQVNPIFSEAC", "assay": "biochemical"}, "Hela cells": {"tested_on": "Hela cells", "conditions": "25 μM, LDH release"}, "HEK293T cells": {"tested_on": "HEK293T cells", "conditions": "25 μM, LDH release"}, "MCF7 cells": {"tested_on": "MCF7 cells", "conditions": "25 μM, LDH release"}, "[3]": {"conditions": "2 h"}, "human IMPDH2": {"biological_target": "human IMPDH2 (Homo sapiens, UniProt P12268)", "assay": "biochemical"}},
  "note": "Like-named read-outs stand apart in the source and are kept apart here.",
  "data": [
    {"compound": "COc1ccc(OC(C)C(=O)Nc2ccc3oc(-c4ccncc4)nc3c2)cc1", "note": "(stereo not shown) [Compound 1, reference compound]", "values": [
      {"measurement": "effect of ATc on antibacterial activity against the wild-type strain", "setting": "H37Rv", "result": "not affected"},
      {"measurement": "7H9/ADC/Tween MIC −Gua", "setting": "Mtb H37Rv (ATCC 27294) [1]", "result": "10 ± 2 (3) μM"}
    ]},
    {"compound": "COc1ccc(-c2nc3cc(NC(=O)[C@H](C)Oc4cccc(Cl)c4Cl)ccc3o2)cn1", "note": "[Compound 8c, (S)-2-(2,3-dichlorophenoxy)-N-(2-(6-methoxypyridin-3-yl)benzo[d]oxazol-5-yl)propanamide]", "values": [
      {"measurement": "effect of guanine on MIC", "setting": "Mtb H37Rv (ATCC 27294) [2]", "result": "increased in the presence of guanine in 7H9/ADC/Tween medium but not in GAST/Fe"}
    ]},
    {"compound": "C[C@H](Oc1cccc(F)c1F)C(=O)Nc1ccc2oc(-c3ccncc3)nc2c1", "note": "[Compound 8l, (S)-2-(2,3-Difluorophenoxy)-N-(2-(pyridin-4-yl)benzo[d]oxazol-5-yl)propanamide]", "values": [
      {"measurement": "antibacterial activity over two weeks", "setting": "Mtb H37Rv (ATCC 27294) [2]; Mtb H37Rv", "result": "retained antibacterial activity"},
      {"measurement": "cytotoxicity (in words)", "setting": "HepG2 cells", "result": "Only compounds 8p, 8u and 17b displayed measurable cytotoxicity"}
    ]},
    {"compound": "C[C@H](Oc1cccc(F)c1F)C(=O)Nc1ccc2oc(-c3ccc(O)cc3)nc2c1", "note": "[Compound 8n, (S)-2-(2,3-Difluorophenoxy)-N-(2-(4-hydroxyphenyl)benzo[d]oxazol-5-yl)propanamide]", "values": [
      {"measurement": "effect of guanine on MIC", "setting": "Mtb H37Rv (ATCC 27294) [2]", "result": "increased substantially in the presence of guanine in both media"}
    ]},
    {"compound": "C[C@H](Oc1cccc(F)c1F)C(=O)Nc1ccc2oc(-c3ccc(C#N)cc3)nc2c1", "note": "[Compound 8p, (S)-N-(2-(4-Cyanophenyl)benzo[d]oxazol-5-yl)-2-(2,3-difluorophenoxy)propanamide]", "values": [
      {"measurement": "cytotoxicity, lactate dehydrogenase release", "setting": "HepG2 cells", "result": "9–13%"},
      {"measurement": "LD50", "setting": "HepG2 cells", "result": "> 25", "unit": "µM"}
    ]},
    {"compound": "COc1ccc(-c2nc3cc(NC(=O)[C@H](C)Oc4ccccc4C#N)ccc3o2)cc1", "note": "[Compound 8u, (S)-2-(2-Cyanophenoxy)-N-(2-(4-methoxyphenyl)benzo[d]oxazol-5-yl)propanamide]", "values": [
      {"measurement": "antibacterial activity over two weeks", "setting": "Mtb H37Rv (ATCC 27294) [2]; Mtb H37Rv", "result": "retained antibacterial activity"},
      {"measurement": "cytotoxicity, lactate dehydrogenase release", "setting": "HepG2 cells", "result": "9–13%"},
      {"measurement": "LD50", "setting": "HepG2 cells", "result": "> 25", "unit": "µM"}
    ]},
    {"compound": "COc1ccc(-c2nc3cc(NC[C@H](C)Oc4cccc(Cl)c4Cl)ccc3o2)cc1", "note": "[Compound 11, (S)-N-(2-(2,3-Dichlorophenoxy)propyl)-2-(4-methoxyphenyl)benzo[d]oxazol-5-amine]", "values": [
      {"measurement": "Ki", "setting": "human GMPR2", "result": "> 5", "unit": "µM"}
    ]},
    {"compound": "C[C@H](Nc1cccc(Cl)c1Cl)C(=O)Nc1ccc2oc(-c3ccc(C#N)cc3)nc2c1", "note": "[Compound 17a, (S)-N-(2-(4-Cyanophenyl)benzo[d]oxazol-5-yl)-2-((2,3-dichlorophenyl)amino)propanamide]", "values": [
      {"measurement": "antibacterial activity over two weeks", "setting": "Mtb H37Rv (ATCC 27294) [2]; Mtb H37Rv", "result": "retained antibacterial activity"}
    ]},
    {"compound": "C[C@H](Nc1cccc(F)c1F)C(=O)Nc1ccc2oc(-c3ccc(C#N)cc3)nc2c1", "note": "[Compound 17b, (S)-N-(2-(4-Cyanophenyl)benzo[d]oxazol-5-yl)-2-((2,3-difluorophenyl)amino)propanamide]", "values": [
      {"measurement": "antibacterial activity over two weeks", "setting": "Mtb H37Rv (ATCC 27294) [2]; Mtb H37Rv", "result": "retained antibacterial activity"},
      {"measurement": "effect of guanine on MIC", "setting": "Mtb H37Rv (ATCC 27294) [2]", "result": "does not change"},
      {"measurement": "effect of ATc on antibacterial activity against the wild-type strain", "setting": "H37Rv", "result": "not affected"},
      {"measurement": "cytotoxicity, lactate dehydrogenase release", "setting": "HepG2 cells", "result": "9–13%"},
      {"measurement": "LD50", "setting": "HepG2 cells", "result": "> 25", "unit": "µM"},
      {"measurement": "cytotoxicity", "setting": "Hela cells", "result": "less than 10%"},
      {"measurement": "cytotoxicity", "setting": "HEK293T cells", "result": "less than 10%"},
      {"measurement": "cytotoxicity", "setting": "MCF7 cells", "result": "less than 10%"},
      {"measurement": "stability in mouse plasma", "setting": "[3]", "result": "No decomposition"}
    ]},
    {"compound": "CCOC(=O)COc1ccc(-c2nc3cc(NC(=O)[C@H](C)Oc4cccc(Cl)c4Cl)ccc3o2)cc1", "note": "[Compound 18a, Ethyl (S)-2-(4-(5-(2-(2,3-dichlorophenoxy)propanamido)benzo[d]oxazol-2-yl)phenoxy)acetate]", "values": [
      {"measurement": "antibacterial activity over two weeks", "setting": "Mtb H37Rv (ATCC 27294) [2]; Mtb H37Rv", "result": "retained antibacterial activity"},
      {"measurement": "effect of ATc on antibacterial activity against the wild-type strain", "setting": "H37Rv", "result": "not affected"},
      {"measurement": "cytotoxicity (in words)", "setting": "HepG2 cells", "result": "Only compounds 8p, 8u and 17b displayed measurable cytotoxicity"}
    ]},
    {"compound": "C[C@H](Oc1cccc(Cl)c1Cl)C(=O)Nc1ccc2oc(-c3ccc(OCC(=O)O)cc3)nc2c1", "note": "[Compound 19a, (S)-2-(4-(5-(2-(2,3-Dichlorophenoxy)propanamido)benzo[d]oxazol-2-yl)phenoxy)acetic acid]", "values": [
      {"measurement": "cytotoxicity (in words)", "setting": "HepG2 cells", "result": "no cytotoxicity was observed"}
    ]},
    {"compound": "C#CCOC(=O)COc1ccc(-c2nc3cc(NC(=O)[C@H](C)Oc4cccc(Cl)c4Cl)ccc3o2)cc1", "note": "[Compound 20, Prop-2-yn-1-yl (S)-2-(4-(5-(2-(2,3-dichlorophenoxy)propanamido)benzo[d]oxa-zol-2-yl)phenoxy)acetate]", "values": [
      {"measurement": "antibacterial activity over two weeks", "setting": "Mtb H37Rv (ATCC 27294) [2]; Mtb H37Rv", "result": "retained antibacterial activity"},
      {"measurement": "cytotoxicity (in words)", "setting": "HepG2 cells", "result": "Only compounds 8p, 8u and 17b displayed measurable cytotoxicity"}
    ]},
    {"compound": "C[C@H](Oc1cccc(Cl)c1Cl)C(=O)Nc1ccc2oc(-c3ccc(C(=O)NO)cc3)nc2c1", "note": "[Compound 21, (S)-4-(5-(2-(2,3-Dichlorophenoxy)propanamido)benzo[d]oxazol-2-yl)-N-hydroxybenzamide]", "values": [
      {"measurement": "antibacterial activity over two weeks", "setting": "Mtb H37Rv (ATCC 27294) [2]; Mtb H37Rv", "result": "retained activity"}
    ]},
    {"compound": "C[C@H](Oc1cccc(Cl)c1Cl)C(=O)Nc1ccc2oc(-c3ccc(C(=O)O)cc3)nc2c1", "note": "[Compound 22, (S)-4-(5-(2-(2,3-Dichlorophenoxy)propanamido)benzo[d]oxazol-2-yl)benzoic acid]", "values": [
      {"measurement": "antibacterial activity over two weeks", "setting": "Mtb H37Rv (ATCC 27294) [2]; Mtb H37Rv", "result": "retained activity"},
      {"measurement": "effect of ATc on antibacterial activity against the wild-type strain", "setting": "H37Rv", "result": "not affected"}
    ]},
    {"compound": "C[C@H](Oc1cccc(Cl)c1Cl)C(=O)Nc1ccc2oc(-c3ccc(-c4nnn[nH]4)cc3)nc2c1", "note": "[Compound 27, (S)-N-(2-(4-(1H-Tetrazol-5-yl)phenyl)benzo[d]oxazol-5-yl)-2-(2,3-dichlorophenoxy)propanamide]", "values": [
      {"measurement": "Ki", "setting": "human IMPDH2", "result": "> 5", "unit": "µM"},
      {"measurement": "Ki", "setting": "human GMPR2", "result": "> 5", "unit": "µM"}
    ]},
    {"compound": "(S)-2-(2,3-Dichlorophenoxy)-N-(2-(2-methoxypyridin-4-yl)benzo[d]oxazol-5-yl)propanamide [Compound 8b]", "values": [
      {"measurement": "7H9/ADC/Tween MIC +Gua", "setting": "Mtb H37Rv (ATCC 27294) [2]; Mtb H37Rv, 7H9/ADC/Tween medium, 200 μM guanine, 1 week", "result": "14 ± 5 (2) μM"},
      {"measurement": "7H9/ADC/Tween MIC −Gua", "setting": "Mtb H37Rv (ATCC 27294) [2]; Mtb H37Rv, 7H9/ADC/Tween medium, no guanine, 1 week", "result": "3.5 ± 1.2 (2) μM"},
      {"measurement": "GAST/Fe MIC +Gua", "setting": "Mtb H37Rv (ATCC 27294) [2]; Mtb H37Rv, GAST/Fe medium, 200 μM guanine, 1 week", "result": "6.3 ± 0.0 (2) μM"},
      {"measurement": "GAST/Fe MIC −Gua", "setting": "Mtb H37Rv (ATCC 27294) [2]; Mtb H37Rv, GAST/Fe medium, no guanine, 1 week", "result": "6.3 ± 0.0 (2) μM"}
    ]}
  ]
}
